Source: the kinase profiling compilation of Christmann-Franck et al. (2016)
One block for each compound: values may come before it.

Tests used:
Assay in all cases: radiometric filter-binding kinase assay, Kinase HotSpot
Details in all cases: compound 0.5 µM; ATP 10 µM
[1] = target: STK11 (human) (UniProt Q15831)
[2] = target: MARK2 (human) (UniProt Q7KZI7)
[3] = target: FGFR3 (human) (UniProt P22607)
[4] = target: TYRO3 (human) (UniProt Q06418)
[5] = target: CSNK1D (human) (UniProt P48730)
[6] = target: PRKX (human) (UniProt P51817)
[7] = target: BTK (human) (UniProt Q06187)
[8] = target: MAP3K3 (human) (UniProt Q99759)
[9] = target: PIM1 (human) (UniProt P11309)
[10] = target: ACVRL1 (human) (UniProt P37023)
[11] = target: NEK11 (human) (UniProt Q8NG66)
[12] = target: CLK3 (human) (UniProt P49761)
[13] = target: NUAK1 (human) (UniProt O60285)
[14] = target: PLK2 (human) (UniProt Q9NYY3)
[15] = target: GSK3A (human) (UniProt P49840)
[16] = target: HCK (human) (UniProt P08631)
[17] = target: SIK2 (human) (UniProt Q9H0K1)
[18] = target: FGFR2 (human) (UniProt P21802)
[19] = target: PHKG1 (human) (UniProt Q16816)
[20] = target: MAP4K2 (human) (UniProt Q12851)
[21] = target: SGK3 (human) (UniProt Q96BR1)
[22] = target: CAMK2A (human) (UniProt Q9UQM7)
[23] = target: JAK2 JH1 JH2 (human) (UniProt O60674)
[24] = target: CSNK1G1 (human) (UniProt Q9HCP0)
[25] = target: DDR2 (human) (UniProt Q16832)
[26] = target: CSNK1E (human) (UniProt P49674)
[27] = target: MUSK (human) (UniProt O15146)
[28] = target: MERTK (human) (UniProt Q12866)
[29] = target: NEK4 (human) (UniProt P51957)
[30] = target: MST1R (human) (UniProt Q04912)
[31] = target: EPHA1 (human) (UniProt P21709)
[32] = target: CSNK1G3 (human) (UniProt Q9Y6M4)
[33] = target: DYRK3 (human) (UniProt O43781)
[34] = target: STK17A (human) (UniProt Q9UEE5)
[35] = target: NTRK2 (human) (UniProt Q16620)
[36] = target: PLK1 (human) (UniProt P53350)
[37] = target: MATK (human) (UniProt P42679)
[38] = target: WNK2 (human) (UniProt Q9Y3S1)
[39] = target: PIM3 (human) (UniProt Q86V86)
[40] = target: EPHA8 (human) (UniProt P29322)
[41] = target: TSSK2 (human) (UniProt Q96PF2)
[42] = target: EPHB3 (human) (UniProt P54753)

Chain of STK17A (human) (Q9UEE5 whole entry, looked up): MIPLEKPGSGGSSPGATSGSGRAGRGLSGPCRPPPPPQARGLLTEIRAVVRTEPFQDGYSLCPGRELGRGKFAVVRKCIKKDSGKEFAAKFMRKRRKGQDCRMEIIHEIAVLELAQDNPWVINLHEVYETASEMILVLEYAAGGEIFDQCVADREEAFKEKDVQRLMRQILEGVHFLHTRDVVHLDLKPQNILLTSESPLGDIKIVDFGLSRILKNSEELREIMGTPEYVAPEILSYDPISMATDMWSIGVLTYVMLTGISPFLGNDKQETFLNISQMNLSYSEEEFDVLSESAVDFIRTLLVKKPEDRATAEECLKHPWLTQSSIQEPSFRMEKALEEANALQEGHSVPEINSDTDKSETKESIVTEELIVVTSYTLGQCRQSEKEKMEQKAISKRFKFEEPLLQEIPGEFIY
Chain of EPHA8 (human) (P29322 whole entry, looked up): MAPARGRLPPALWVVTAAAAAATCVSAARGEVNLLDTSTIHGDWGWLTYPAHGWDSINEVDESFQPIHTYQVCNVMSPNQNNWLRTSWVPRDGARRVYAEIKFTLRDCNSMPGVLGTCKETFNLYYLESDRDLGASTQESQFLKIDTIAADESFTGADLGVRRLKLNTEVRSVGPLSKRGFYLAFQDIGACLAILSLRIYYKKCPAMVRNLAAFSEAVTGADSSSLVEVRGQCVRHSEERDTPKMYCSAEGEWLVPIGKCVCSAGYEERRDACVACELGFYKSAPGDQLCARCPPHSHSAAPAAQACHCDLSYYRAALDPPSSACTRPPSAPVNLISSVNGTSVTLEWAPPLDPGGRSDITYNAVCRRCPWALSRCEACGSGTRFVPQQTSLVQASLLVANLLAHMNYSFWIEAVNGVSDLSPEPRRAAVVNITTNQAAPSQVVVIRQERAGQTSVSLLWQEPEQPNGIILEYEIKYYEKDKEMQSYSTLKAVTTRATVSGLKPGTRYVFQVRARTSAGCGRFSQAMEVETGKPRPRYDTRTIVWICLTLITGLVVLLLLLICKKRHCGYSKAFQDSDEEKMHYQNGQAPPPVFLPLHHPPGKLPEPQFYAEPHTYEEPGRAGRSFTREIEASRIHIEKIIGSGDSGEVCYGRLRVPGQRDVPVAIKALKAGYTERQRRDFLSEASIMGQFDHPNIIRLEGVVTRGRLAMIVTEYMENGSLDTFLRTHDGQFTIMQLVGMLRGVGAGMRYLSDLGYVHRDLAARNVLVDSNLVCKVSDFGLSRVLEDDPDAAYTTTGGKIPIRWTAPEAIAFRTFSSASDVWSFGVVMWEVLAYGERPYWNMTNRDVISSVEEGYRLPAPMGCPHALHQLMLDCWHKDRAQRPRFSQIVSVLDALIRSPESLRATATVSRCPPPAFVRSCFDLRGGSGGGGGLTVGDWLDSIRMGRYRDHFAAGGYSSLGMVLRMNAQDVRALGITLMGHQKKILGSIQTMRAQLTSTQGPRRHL
Chain of STK11 (human) (Q15831 whole entry, looked up): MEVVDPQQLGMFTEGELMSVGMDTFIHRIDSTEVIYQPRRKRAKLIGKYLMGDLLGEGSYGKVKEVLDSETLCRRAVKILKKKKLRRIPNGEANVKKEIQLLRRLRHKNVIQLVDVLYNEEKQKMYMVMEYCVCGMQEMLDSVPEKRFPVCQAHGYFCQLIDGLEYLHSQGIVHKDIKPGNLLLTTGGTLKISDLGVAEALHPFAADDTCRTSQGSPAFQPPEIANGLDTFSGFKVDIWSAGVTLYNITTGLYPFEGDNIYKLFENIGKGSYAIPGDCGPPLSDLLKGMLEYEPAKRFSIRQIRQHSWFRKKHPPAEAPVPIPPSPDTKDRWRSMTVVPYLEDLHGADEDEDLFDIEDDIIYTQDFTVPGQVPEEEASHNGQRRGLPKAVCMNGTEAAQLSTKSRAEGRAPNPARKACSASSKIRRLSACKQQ
Chain of PRKX (human) (P51817 whole entry, looked up): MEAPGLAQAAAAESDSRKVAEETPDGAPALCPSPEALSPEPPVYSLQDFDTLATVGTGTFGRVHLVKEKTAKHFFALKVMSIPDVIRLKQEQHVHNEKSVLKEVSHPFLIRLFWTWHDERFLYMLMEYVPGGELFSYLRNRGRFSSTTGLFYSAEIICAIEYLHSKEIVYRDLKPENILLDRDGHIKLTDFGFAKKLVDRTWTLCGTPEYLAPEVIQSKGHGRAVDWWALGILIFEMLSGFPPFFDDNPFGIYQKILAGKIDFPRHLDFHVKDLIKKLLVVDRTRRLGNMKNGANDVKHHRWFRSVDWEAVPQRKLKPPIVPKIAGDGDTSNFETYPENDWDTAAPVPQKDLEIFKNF
Chain of CSNK1G1 (human) (Q9HCP0 whole entry, looked up): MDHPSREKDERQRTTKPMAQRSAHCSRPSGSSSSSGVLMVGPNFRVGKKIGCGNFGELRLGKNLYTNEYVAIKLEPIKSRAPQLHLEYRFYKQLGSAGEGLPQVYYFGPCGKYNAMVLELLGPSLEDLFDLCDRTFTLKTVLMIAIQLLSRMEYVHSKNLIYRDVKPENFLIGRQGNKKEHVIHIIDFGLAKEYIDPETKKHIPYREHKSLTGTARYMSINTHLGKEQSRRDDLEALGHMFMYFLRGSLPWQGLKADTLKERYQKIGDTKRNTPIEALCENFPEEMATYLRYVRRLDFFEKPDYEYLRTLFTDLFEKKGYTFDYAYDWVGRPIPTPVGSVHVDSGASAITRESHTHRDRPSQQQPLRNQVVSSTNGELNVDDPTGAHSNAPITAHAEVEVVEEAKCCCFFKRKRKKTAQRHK
Chain of HCK (human) (P08631 whole entry, looked up): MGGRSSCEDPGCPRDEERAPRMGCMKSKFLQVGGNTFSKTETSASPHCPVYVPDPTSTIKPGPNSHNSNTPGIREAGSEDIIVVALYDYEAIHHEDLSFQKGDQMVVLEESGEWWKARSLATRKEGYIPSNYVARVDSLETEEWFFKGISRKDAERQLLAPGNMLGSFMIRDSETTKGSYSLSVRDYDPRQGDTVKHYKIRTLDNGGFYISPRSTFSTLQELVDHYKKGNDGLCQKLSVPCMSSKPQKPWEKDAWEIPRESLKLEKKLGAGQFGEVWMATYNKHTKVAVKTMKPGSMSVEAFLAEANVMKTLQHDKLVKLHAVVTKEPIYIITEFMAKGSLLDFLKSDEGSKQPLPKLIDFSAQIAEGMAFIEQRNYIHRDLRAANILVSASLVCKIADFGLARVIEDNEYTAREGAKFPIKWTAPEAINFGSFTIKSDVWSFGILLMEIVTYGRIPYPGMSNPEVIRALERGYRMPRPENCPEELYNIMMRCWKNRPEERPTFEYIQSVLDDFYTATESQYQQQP
Chain of DYRK3 (human) (O43781 whole entry, looked up): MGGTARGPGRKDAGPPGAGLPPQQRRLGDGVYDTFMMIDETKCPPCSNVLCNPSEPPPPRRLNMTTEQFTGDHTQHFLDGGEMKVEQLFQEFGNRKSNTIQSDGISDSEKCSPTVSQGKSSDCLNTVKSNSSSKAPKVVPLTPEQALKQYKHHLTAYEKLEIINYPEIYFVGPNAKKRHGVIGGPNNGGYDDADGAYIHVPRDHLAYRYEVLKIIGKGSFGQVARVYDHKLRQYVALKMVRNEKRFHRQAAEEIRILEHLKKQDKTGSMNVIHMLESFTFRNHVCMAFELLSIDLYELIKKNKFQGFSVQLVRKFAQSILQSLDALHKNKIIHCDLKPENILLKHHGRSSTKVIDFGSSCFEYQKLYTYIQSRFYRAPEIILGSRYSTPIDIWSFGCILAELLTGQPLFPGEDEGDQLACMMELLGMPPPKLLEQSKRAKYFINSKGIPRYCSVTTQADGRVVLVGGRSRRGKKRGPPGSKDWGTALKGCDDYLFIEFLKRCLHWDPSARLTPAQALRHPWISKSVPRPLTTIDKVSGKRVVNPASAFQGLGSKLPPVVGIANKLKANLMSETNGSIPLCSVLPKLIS
Chain of PIM1 (human) (P11309 whole entry, looked up): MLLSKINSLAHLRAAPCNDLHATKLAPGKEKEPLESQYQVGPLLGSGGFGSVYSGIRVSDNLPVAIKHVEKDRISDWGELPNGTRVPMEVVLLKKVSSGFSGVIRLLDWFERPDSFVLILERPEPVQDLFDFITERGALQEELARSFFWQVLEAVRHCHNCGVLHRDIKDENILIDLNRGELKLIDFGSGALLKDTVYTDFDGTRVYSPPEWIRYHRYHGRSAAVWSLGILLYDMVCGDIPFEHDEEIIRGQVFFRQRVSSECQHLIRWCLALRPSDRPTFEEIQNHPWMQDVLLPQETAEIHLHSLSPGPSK
Chain of TSSK2 (human) (Q96PF2 whole entry, looked up): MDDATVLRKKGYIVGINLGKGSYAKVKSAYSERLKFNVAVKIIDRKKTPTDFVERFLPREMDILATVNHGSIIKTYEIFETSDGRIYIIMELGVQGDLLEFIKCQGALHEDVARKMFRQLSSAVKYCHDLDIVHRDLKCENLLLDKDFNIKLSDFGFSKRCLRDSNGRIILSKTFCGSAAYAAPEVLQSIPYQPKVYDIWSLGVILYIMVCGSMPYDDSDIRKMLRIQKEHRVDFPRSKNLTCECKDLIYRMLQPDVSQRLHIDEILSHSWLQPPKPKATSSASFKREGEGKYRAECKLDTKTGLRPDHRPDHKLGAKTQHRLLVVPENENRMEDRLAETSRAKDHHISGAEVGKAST
Chain of CLK3 (human) (P49761 whole entry, looked up): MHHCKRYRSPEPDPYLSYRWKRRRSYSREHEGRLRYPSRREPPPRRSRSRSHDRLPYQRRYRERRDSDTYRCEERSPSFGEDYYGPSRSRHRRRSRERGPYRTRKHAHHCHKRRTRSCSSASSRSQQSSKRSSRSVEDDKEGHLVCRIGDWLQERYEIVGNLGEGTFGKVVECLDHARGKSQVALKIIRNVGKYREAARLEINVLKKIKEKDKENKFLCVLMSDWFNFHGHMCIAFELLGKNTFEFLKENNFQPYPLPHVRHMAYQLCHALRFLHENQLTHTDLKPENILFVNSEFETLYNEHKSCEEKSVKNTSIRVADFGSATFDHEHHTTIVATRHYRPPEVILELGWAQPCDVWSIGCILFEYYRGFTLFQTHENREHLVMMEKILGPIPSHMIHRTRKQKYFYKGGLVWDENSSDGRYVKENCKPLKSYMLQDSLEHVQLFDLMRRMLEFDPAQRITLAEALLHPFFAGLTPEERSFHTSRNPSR

Compound: CCN(CC)CCNC(=O)c1c(C)[nH]c(/C=C2\C(=O)Nc3ccc(Cl)cc32)c1C
residual activity [1]: 80.7%
residual activity [2]: 9.74%
residual activity [3]: 12.3%
residual activity [4]: 23.2%
residual activity [5]: 49.7%
residual activity [6]: 83.9%
residual activity [7]: 58.3%
residual activity [8]: 30.6%
residual activity [9]: 91.7%
residual activity [10]: 89%
residual activity [11]: 83.4%
residual activity [12]: 101%
residual activity [13]: 2.06%
residual activity [14]: 91.2%
residual activity [15]: 88.3%
residual activity [16]: 34.3%
residual activity [17]: 42.7%
residual activity [18]: 29.3%
residual activity [19]: 3.19%
residual activity [20]: 8.07%
residual activity [21]: 103%
residual activity [22]: 3.6%
residual activity [23]: 54%
residual activity [24]: 69.2%
residual activity [25]: 104%
residual activity [26]: 46.7%
residual activity [27]: 63.5%
residual activity [28]: 11.5%
residual activity [29]: 97%
residual activity [30]: 96.7%
residual activity [31]: 89.4%
residual activity [32]: 47.7%
residual activity [33]: 81.8%
residual activity [34]: 16.1%
residual activity [35]: 8.43%
residual activity [36]: 105%
residual activity [37]: 96.8%
residual activity [38]: 101%
residual activity [39]: 74%
residual activity [40]: 99.5%
residual activity [41]: 66.9%
residual activity [42]: 100%

residual activity [1]: 101%
residual activity [2]: 86.4%
residual activity [3]: 77.5%
residual activity [4]: 102%
residual activity [5]: 85.1%
residual activity [6]: 102%
residual activity [7]: 4.56%
residual activity [8]: 71.2%
residual activity [9]: 92.4%
residual activity [10]: 95.9%
residual activity [11]: 87.1%
residual activity [12]: 96.9%
residual activity [13]: 87%
residual activity [14]: 92.5%
residual activity [15]: 105%
residual activity [16]: 2.18%
residual activity [17]: 101%
residual activity [18]: 78%
residual activity [19]: 91.1%
residual activity [20]: 89.4%
residual activity [21]: 112%
residual activity [22]: 113%
residual activity [23]: 104%
residual activity [24]: 90.8%
residual activity [25]: 95%
residual activity [26]: 22.3%
residual activity [27]: 115%
residual activity [28]: 87.4%
residual activity [29]: 92.1%
residual activity [30]: 94%
residual activity [31]: 101%
residual activity [32]: 99.5%
residual activity [33]: 94.9%
residual activity [34]: 96.3%
residual activity [35]: 87%
residual activity [36]: 100%
residual activity [37]: 90%
residual activity [38]: 102%
residual activity [39]: 98.7%
residual activity [40]: 95.2%
residual activity [41]: 92.1%
residual activity [42]: 93.4%
Compound: Nc1ncnc2c1c(-c1ccc(Oc3ccccc3)cc1)cn2C1CCCC1

Compound: CO[C@H]1CC2CC[C@@H](C)[C@@](O)(O2)C(=O)C(=O)N2CCCC[C@H]2C(=O)OC([C@H](C)C[C@@H]2CC[C@@H](O)[C@H](OC)C2)CC(=O)[C@H](C)/C=C(\C)[C@@H](O)[C@@H](OC)C(=O)[C@H](C)C[C@H](C)/C=C/C=C/C=C/1C (stereo partly drawn)
residual activity [1]: 91.1%
residual activity [2]: 104%
residual activity [3]: 102%
residual activity [4]: 98.5%
residual activity [5]: 110%
residual activity [6]: 95.6%
residual activity [7]: 101%
residual activity [8]: 101%
residual activity [9]: 104%
residual activity [10]: 97.9%
residual activity [11]: 73.6%
residual activity [12]: 94.4%
residual activity [13]: 101%
residual activity [14]: 105%
residual activity [15]: 106%
residual activity [16]: 102%
residual activity [17]: 94.3%
residual activity [18]: 110%
residual activity [19]: 93%
residual activity [20]: 111%
residual activity [21]: 98.1%
residual activity [22]: 105%
residual activity [23]: 97.5%
residual activity [24]: 96%
residual activity [25]: 95.6%
residual activity [26]: 102%
residual activity [27]: 87.7%
residual activity [28]: 90.9%
residual activity [29]: 97.2%
residual activity [30]: 97%
residual activity [31]: 99.5%
residual activity [32]: 108%
residual activity [33]: 105%
residual activity [34]: 95.9%
residual activity [35]: 106%
residual activity [36]: 97.8%
residual activity [37]: 92%
residual activity [38]: 103%
residual activity [39]: 106%
residual activity [40]: 92.7%
residual activity [41]: 99.8%
residual activity [42]: 103%

Compound: Cc1ccc(Nc2nccc(N(C)c3ccc4c(C)n(C)nc4c3)n2)cc1S(N)(=O)=O
residual activity [1]: 92.1%
residual activity [2]: 111%
residual activity [3]: 39.3%
residual activity [4]: 92%
residual activity [5]: 95.4%
residual activity [6]: 101%
residual activity [7]: 78.8%
residual activity [8]: 112%
residual activity [9]: 100%
residual activity [10]: 102%
residual activity [11]: 94.8%
residual activity [12]: 107%
residual activity [13]: 53.4%
residual activity [14]: 101%
residual activity [15]: 101%
residual activity [16]: 64.8%
residual activity [17]: 84.1%
residual activity [18]: 40.2%
residual activity [19]: 92.5%
residual activity [20]: 72.5%
residual activity [21]: 97.5%
residual activity [22]: 95.6%
residual activity [23]: 101%
residual activity [24]: 100%
residual activity [25]: 36.2%
residual activity [26]: 97.5%
residual activity [27]: 95.1%
residual activity [28]: 57.2%
residual activity [29]: 91.1%
residual activity [30]: 97.8%
residual activity [31]: 85%
residual activity [32]: 97.1%
residual activity [33]: 95.9%
residual activity [34]: 95.9%
residual activity [35]: 91.5%
residual activity [36]: 99.5%
residual activity [37]: 104%
residual activity [38]: 98.2%
residual activity [39]: 81.6%
residual activity [40]: 90%
residual activity [41]: 102%
residual activity [42]: 71.7%
